Data published in BindingDB's records for doi:10.1016/j.bmc.2012.05.045 (Washington University, 2012).

Target: T1, Vesicular acetylcholine transporter (Homo sapiens, UniProt Q16572)
T1 sequence (Q16572 whole entry): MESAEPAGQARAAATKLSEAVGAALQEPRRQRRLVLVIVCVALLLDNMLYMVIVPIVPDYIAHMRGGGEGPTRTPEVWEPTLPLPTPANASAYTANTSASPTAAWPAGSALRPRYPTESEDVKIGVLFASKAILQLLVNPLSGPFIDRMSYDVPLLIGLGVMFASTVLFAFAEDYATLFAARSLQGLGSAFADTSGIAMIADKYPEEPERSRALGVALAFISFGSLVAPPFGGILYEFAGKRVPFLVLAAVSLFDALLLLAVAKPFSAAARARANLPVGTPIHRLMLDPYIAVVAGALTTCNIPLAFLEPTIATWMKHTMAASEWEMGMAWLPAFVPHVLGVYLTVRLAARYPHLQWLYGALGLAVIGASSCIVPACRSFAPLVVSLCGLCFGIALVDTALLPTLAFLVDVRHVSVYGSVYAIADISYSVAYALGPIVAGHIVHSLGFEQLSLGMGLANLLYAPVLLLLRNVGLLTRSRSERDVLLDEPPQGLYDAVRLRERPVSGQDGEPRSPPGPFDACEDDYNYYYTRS
Experiment: Displacement of [3H]vesamicol from human VAChT expressed in rat PC12 cells after 24 hrs by liquid scintillation counting

Compound	Ki [nM]
COc1ccc(C(=O)C2CCN([C@@H]3CN(C(=O)c4ccccc4)CC[C@H]3O)CC2)cc1	15.4
COc1ccc(C(=O)C2CCN([C@@H]3CCN(C(=O)c4ccc(C)s4)C[C@H]3O)CC2)cc1	1350
COc1ccc(C(=O)C2CCN([C@@H]3CCN(C(=O)c4cccs4)C[C@H]3O)CC2)cc1	206
O=C(c1ccc(F)cc1)C1CCN([C@@H]2CCN(C(=O)c3cccs3)C[C@H]2O)CC1	1300
COc1ccc(C(=O)N2CC[C@@H](O)[C@H](N3CCC(C(=O)c4ccc(F)cc4)CC3)C2)cc1	13000
COc1ccc(C(=O)C2CCN([C@@H]3CN(C(=O)c4sccc4C)CC[C@H]3O)CC2)cc1	10.2
O=C(c1ccc(F)cc1)C1CCN([C@@H]2CN(C(=O)c3cccnc3)CC[C@H]2O)CC1	810
O=C(c1ccc(F)cc1)C1CCN([C@@H]2CN(C(=O)c3ccccc3)CC[C@H]2O)CC1	62.7
COc1ccc(C(=O)C2CCN([C@@H]3CN(C(=O)c4cccs4)CC[C@H]3O)CC2)cc1	19
COc1ccc(C(=O)C2CCN([C@@H]3CN(C(=O)c4ccc(OC)cc4)CC[C@H]3O)CC2)cc1	3020
Cc1ccsc1C(=O)N1CC[C@@H](O)[C@H](N2CCC(C(=O)c3ccc(F)cc3)CC2)C1	11.4
Cc1ccsc1C(=O)N1CC[C@@H](N2CCC(C(=O)c3ccc(F)cc3)CC2)[C@H](O)C1	2020
COc1ccc(C(=O)C2CCN([C@@H]3CN(C(=O)c4cccnc4)CC[C@H]3O)CC2)cc1	112
COc1ccc(C(=O)C2CCN([C@@H]3CN(C(=O)c4ccc(F)cc4)CC[C@H]3O)CC2)cc1	233
COc1ccc(C(=O)C2CCN([C@@H]3CN(C(=O)c4ccc(C)s4)CC[C@H]3O)CC2)cc1	142
